{"source": "patent US11980636B2", "about": "“Treatment of hematological disorders” (Jazz Pharmaceuticals Ireland Limited, priority 2020, dated 2024)", "key": {"[1]": {"tested_on": "KG-1 cells", "experiment": "CellTiter-Glo cell viability, 72 hours", "type": "cell-based", "conditions": "Homo sapiens", "protocol": "(§1) AML cell lines used were: HL-60 (ATCC), SKM-1 (Sekisui XenoTech) and KG-1 (ATCC). Acute Lymphoid Leukemia (ALL) cell lines used were: CCRF-CEM (ATCC), MOLT-3 (ATCC), and Jurkat E6-1 (ATCC). […] After 24 hours, cells were dosed with CPX-351, venetoclax, azacitidine, decitabine, and/or cytarabine. CPX-351 and cytarabine were each dosed in a titration starting at 50 μM (for CPX-351, this was measured by its cytarabine content), with 8 additional serial dilutions of 5× each and a final group with no treatment. […] For the combination treatment of CPX-351 and venetoclax, the same titrations were used as in single-agent treatment. About 72 hours after dosing, cell viability was measured by CellTiter-Glo assay (Promega) according to manufacturer instructions; luminescence was measured and IC50 values were estimated by Cytation Multi-Mode reader (BioTek)."}, "[2]": {"tested_on": "SKM-1 cells", "experiment": "CellTiter-Glo cell viability, 72 hours", "type": "cell-based", "conditions": "Homo sapiens", "protocol": "as §1"}, "[3]": {"tested_on": "MOLT-3 cells", "experiment": "CellTiter-Glo cell viability, 72 hours", "type": "cell-based", "conditions": "Homo sapiens", "protocol": "as §1"}, "[4]": {"tested_on": "CCRF-CEM cells", "experiment": "CellTiter-Glo cell viability, 72 hours", "type": "cell-based", "conditions": "Homo sapiens, read-out: IC50 values", "protocol": "as §1"}, "[5]": {"tested_on": "HL-60 cells", "experiment": "CellTiter-Glo cell viability, 72 hours", "type": "cell-based", "conditions": "Homo sapiens", "protocol": "as §1"}, "[6]": {"tested_on": "Jurkat E6-1 cells", "experiment": "CellTiter-Glo cell viability, 72 hours", "type": "cell-based", "conditions": "Homo sapiens", "protocol": "as §1"}, "[7]": {"conditions": "for Vp (Vp2), peripheral volume of distribution: population mean coefficient at BSA 1.95 (daunorubicin dose 86 mg), following CPX-351; for CLd (CLd2), distribution clearance: population mean coefficient at BSA 1.95, following CPX-351"}, "[8]": {"experiment": "clinical", "conditions": "human, in vivo, intravenous; for Vd: 195 mg"}, "[9]": {"biological_target": "T1, GCSF receptor (Homo sapiens, UniProt Q99062)", "T1 sequence (Q99062 25-836)": "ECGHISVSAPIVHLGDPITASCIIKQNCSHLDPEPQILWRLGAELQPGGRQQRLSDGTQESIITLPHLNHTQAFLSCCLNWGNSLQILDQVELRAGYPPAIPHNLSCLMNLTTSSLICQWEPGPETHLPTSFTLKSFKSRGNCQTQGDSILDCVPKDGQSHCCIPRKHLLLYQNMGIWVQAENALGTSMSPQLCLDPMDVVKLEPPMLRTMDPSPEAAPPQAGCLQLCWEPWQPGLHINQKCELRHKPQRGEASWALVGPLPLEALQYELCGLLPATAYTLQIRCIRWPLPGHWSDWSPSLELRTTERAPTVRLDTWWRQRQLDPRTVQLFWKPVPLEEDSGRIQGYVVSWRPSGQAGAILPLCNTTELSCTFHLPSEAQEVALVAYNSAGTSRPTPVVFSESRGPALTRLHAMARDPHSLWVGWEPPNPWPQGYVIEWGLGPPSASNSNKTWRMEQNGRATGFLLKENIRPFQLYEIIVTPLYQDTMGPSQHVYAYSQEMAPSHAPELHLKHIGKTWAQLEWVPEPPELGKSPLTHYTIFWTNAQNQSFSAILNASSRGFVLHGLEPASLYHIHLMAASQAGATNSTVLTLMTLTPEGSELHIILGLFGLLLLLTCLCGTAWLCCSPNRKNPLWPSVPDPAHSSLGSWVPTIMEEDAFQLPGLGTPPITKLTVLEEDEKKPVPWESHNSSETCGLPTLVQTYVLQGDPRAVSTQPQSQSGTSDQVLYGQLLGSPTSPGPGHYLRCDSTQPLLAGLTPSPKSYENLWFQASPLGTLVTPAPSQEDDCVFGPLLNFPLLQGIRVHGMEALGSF", "conditions": "population mean, cited from earlier work; for Kd: read-out: KD, equilibrium dissociation constant for GCSF and GCSF receptor"}, "[10]": {"conditions": "in vivo; cited from earlier work"}, "[11]": {"conditions": "KG-1, AML, CPX-351 by cytarabine content, read-out: IC50 values"}, "[12]": {"conditions": "SKM-1, AML, CPX-351 by cytarabine content, read-out: IC50 values"}, "[13]": {"conditions": "MOLT-3, ALL, CPX-351 by cytarabine content, read-out: IC50 values"}, "[14]": {"conditions": "ALL, CPX-351 by cytarabine content"}, "[15]": {"conditions": "HL-60, HL60, AML, CPX-351 by cytarabine content, read-out: IC50 values"}, "[16]": {"conditions": "Jurkat E6-1, ALL, CPX-351 by cytarabine content, read-out: IC50 values"}}, "note": "Where two headings read alike, the source gives them in different places."}
{"molecule": "Nc1ncn([C@@H]2O[C@H](CO)[C@@H](O)[C@H]2O)c(=O)n1", "note": "[Azacitidine]", "values": [{"measurement": "IC50", "setting": "[1]; [11]", "result": 4000, "unit": "nM"}, {"measurement": "IC50", "setting": "[2]; [12]", "result": 420, "unit": "nM"}, {"measurement": "IC50", "setting": "[3]; [13]", "result": 4030, "unit": "nM"}, {"measurement": "IC50", "setting": "[4]; [14]", "result": 1580, "unit": "nM"}, {"measurement": "IC50", "setting": "[5]; [15]", "result": 1420, "unit": "nM"}, {"measurement": "IC50", "setting": "[6]; [16]", "result": 980, "unit": "nM"}]}
{"molecule": "Nc1ccn([C@@H]2O[C@H](CO)[C@@H](O)[C@@H]2O)c(=O)n1", "note": "[Cytarabine, 1-β-D-arabinofuranosylcytosine]", "values": [{"measurement": "Vp (Vp2), peripheral volume of distribution", "setting": "[7]", "result": "0.214 · (BSA/1.95)^1 L"}, {"measurement": "CLd (CLd2), distribution clearance", "setting": "[7]", "result": "0.00646 · (BSA/1.95)^1 L/h"}, {"measurement": "IC50", "setting": "[1]; [11]", "result": 240, "unit": "nM"}, {"measurement": "IC50", "setting": "[2]; [12]", "result": 540, "unit": "nM"}, {"measurement": "IC50", "setting": "[3]; [13]", "result": 80, "unit": "nM"}, {"measurement": "IC50", "setting": "[4]; [14]", "result": 30, "unit": "nM"}, {"measurement": "IC50", "setting": "[5]; [15]", "result": 850, "unit": "nM"}, {"measurement": "IC50", "setting": "[6]; [16]", "result": 40, "unit": "nM"}, {"measurement": "clearance", "setting": "[8]", "result": 1.77, "unit": "mL/min"}, {"measurement": "Vd", "setting": "[8]", "result": 5.12, "unit": "L"}]}
{"molecule": "COc1cccc2c1C(=O)c1c(O)c3c(c(O)c1C2=O)C[C@@](O)(C(C)=O)C[C@@H]3O[C@H]1C[C@H](N)[C@H](O)[C@H](C)O1", "note": "[Daunorubicin]", "values": [{"measurement": "Vp (Vp2), peripheral volume of distribution", "setting": "[7]", "result": "0.523 · (BSA/1.95)^1 · L"}, {"measurement": "CLd (CLd2), distribution clearance", "setting": "[7]", "result": "0.0258 · (BSA/1.95)^1 L/h"}, {"measurement": "clearance", "setting": "[8]", "result": 2.42, "unit": "mL/min"}, {"measurement": "Vd", "setting": "[8]", "result": 4.34, "unit": "L"}]}
{"molecule": "Nc1ncn([C@H]2C[C@H](O)[C@@H](CO)O2)c(=O)n1", "note": "[Decitabine]", "values": [{"measurement": "IC50", "setting": "[1]; KG-1, read-out: IC50 values", "result": 360, "unit": "nM"}, {"measurement": "IC50", "setting": "[2]; SKM-1, read-out: IC50 values", "result": 240, "unit": "nM"}, {"measurement": "IC50", "setting": "[3]; MOLT-3, read-out: IC50 values", "result": 230, "unit": "nM"}, {"measurement": "IC50", "setting": "[4]", "result": 40, "unit": "nM"}, {"measurement": "IC50", "setting": "[5]; HL-60, read-out: IC50 values", "result": 820, "unit": "nM"}, {"measurement": "IC50", "setting": "[6]; Jurkat E6.1, read-out: IC50 values", "result": 100, "unit": "nM"}]}
{"molecule": "CC1(C)CCC(CN2CCN(c3ccc(C(=O)NS(=O)(=O)c4ccc(NCC5CCOCC5)c([N+](=O)[O-])c4)c(Oc4cnc5[nH]ccc5c4)c3)CC2)=C(c2ccc(Cl)cc2)C1", "note": "[Venetoclax]", "values": [{"measurement": "IC50", "setting": "[1]; [11]", "result": 2100, "unit": "nM"}, {"measurement": "IC50", "setting": "[2]; [12]", "result": 1500, "unit": "nM"}, {"measurement": "IC50", "setting": "[3]; [13]", "result": 1000, "unit": "nM"}, {"measurement": "IC50", "setting": "[4]; [14]", "result": 2800, "unit": "nM"}, {"measurement": "IC50", "setting": "[5]; [15]", "result": 50, "unit": "nM"}, {"measurement": "IC50", "setting": "[6]; [16]", "result": 3500, "unit": "nM"}]}
{"molecule": "Filgrastim: exogenous GCSF agent (protein, UniProt P09919 31-207, looked up, filgrastim, N-terminal Met, exogenous GCSF agent) Granulocyte …: TPLGPASSLPQSFLLKCLEQVRKIQGDGAALQEKLVSECATYKLCHPEELVLLGHSLGIPWAPLSSCPSQALQLAGCLSQLHSGLFLYQGLLQALEGISPELGPTLDTLQLDVADFATTIWQQMEELGMAPALQPTQGAMPAFASAFQRRAGGVLVASHLQSFLEVSYRVLRHLAQP", "values": [{"measurement": "kint, first-order rate constant for internalization of GCSF receptor complexed with filgrastim or pegfilgrastim", "setting": "[9]", "result": 0.113, "unit": "h⁻¹"}, {"measurement": "Kd", "setting": "[9]", "result": 0.0237, "unit": "nM"}, {"measurement": "CL, clearance", "setting": "[10]", "result": "0.833 · (WTKG/70)^0.641 L/h"}, {"measurement": "D2, duration of the zero-order absorption process", "setting": "[10]", "result": 6.6, "unit": "h"}, {"measurement": "F1, bioavailability of first-order absorption process", "setting": "[10]", "result": 0.105}, {"measurement": "F2, bioavailability of zero-order absorption process", "setting": "[10]", "result": 0.586}, {"measurement": "Vc, central volume of distribution", "setting": "[10]", "result": "3.12 · (WTKG/70)^0.943 L"}, {"measurement": "ka, first-order absorption rate constant", "setting": "[10]", "result": 0.403, "unit": "h⁻¹"}]}
{"molecule": "Pegfilgrastim: exogenous GCSF agent (protein, UniProt P09919 31-207, looked up, pegfilgrastim; PEGylated, N-terminal Met, exogenous GCSF agent) Granulocyte …: TPLGPASSLPQSFLLKCLEQVRKIQGDGAALQEKLVSECATYKLCHPEELVLLGHSLGIPWAPLSSCPSQALQLAGCLSQLHSGLFLYQGLLQALEGISPELGPTLDTLQLDVADFATTIWQQMEELGMAPALQPTQGAMPAFASAFQRRAGGVLVASHLQSFLEVSYRVLRHLAQP", "values": [{"measurement": "kint, first-order rate constant for internalization of GCSF receptor complexed with filgrastim or pegfilgrastim", "setting": "[9]", "result": 0.113, "unit": "h⁻¹"}, {"measurement": "Kd", "setting": "[9]", "result": 0.0959, "unit": "nM"}, {"measurement": "F1, bioavailability of first-order absorption process", "setting": "[10]", "result": 0.646}, {"measurement": "Vc, central volume of distribution", "setting": "[10]", "result": "5.76 · (WTKG/70)^0.943 L"}, {"measurement": "clearance", "setting": "[10]", "result": 6.03, "unit": "mL/min"}, {"measurement": "ka, first-order absorption rate constant", "setting": "[10]", "result": 0.0188, "unit": "h⁻¹"}]}
